From paper PMC11341359, “Assessing the immunogenicity risk of salmon calcitonin peptide impurities using in silico and in vitro methods” (Frontiers in Pharmacology, 2024)
pIC50: −log10 of the molar value. Peptide text beside a SMILES is read from it.

Columns and labels:
HLA DRB1*0301 = target: T1, HLA DRB1*0301 (Homo sapiens, UniProt P01903+P01911, A100K/A102G/A103R/A169T/F55Y/I96L/K41T/L162R/M171V/P40S/Q125H/Q178H/Q39Y/R42S/S66N/T106N/T262R/W38E/Y61H); assay: Class II HLA competition binding assay; settings: short assay peptides (Cys7 replaced with Ser), competition with biotinylated allele-specific peptide, soluble HLA DR, overnight, time-resolved fluorescence, triplicate, seven concentrations; for pIC50: unit inferred
T1 construct: incubated overnight to equilibrium with a soluble HLA DR molecule; purchased Benaroya Research Institute, Seattle, Washington
Experimental: (§1) The class II HLA binding assays performed for these studies measure the binding affinity of a target peptide to HLA DRB1*0101, *0301, *0401, *0701, *0901, *1101, *1301, and *1501 in a standardized competition assay. This assay was originally described by [Steere et al. (2006)] and adapted by EpiVax. Previous publications have described the assay in detail ([McMurry et al., 2007]; [Ardito et al., 2011]). Briefly, unlabeled test peptides are incubated overnight to equilibrium with a soluble HLA DR molecule (Benaroya Research Institute, Seattle, Washington) and a biotinylated, allele-specific competitor peptide. The binding reaction is then neutralized, and peptide–HLA complexes are transferred to a 96-well plate coated with the pan-HLA DR antibody, clone L243 (BioLegend), and incubated overnight. The following day, Europium-labeled streptavidin (PerkinElmer, Waltham, MA) is added to identify the peptide–HLA complexes. An indirect measure of binding is determined by time-resolved fluorescence. Each peptide–HLA binding reaction is evaluated in triplicate over a range of seven concentrations. The percent inhibition values at seven distinct concentrations are used to calculate the IC50 value, defined as the concentration at which the test peptide inhibits 50% of the labeled competitor peptide.
(§2) Peptides that bind to the HLA at an IC50 value of 100 nM or less are considered very high-affinity binders. Peptides that bind at IC50 values ranging from 100 nM to 1,000 nM are considered high-affinity binders. Peptides that bind at IC50 values ranging from 1,000 nM to 10,000 nM are considered moderate-affinity binders. Peptides that bind at IC50 values ranging from 10,000 nM to 100,000 nM are considered low-affinity binders, and those with IC50 values ranging from 100,000 nM to 1,000,000 nM are considered negligible-affinity binders. […] We note that these concentrations are specific for the in vitro HLA-binding assay and are used to compare the relative binding affinities of the impurity sequences to the API and independent from the peptide concentrations described for the in vitro T-cell assays described below.

HLA DRB1*0701 = HLA DRB1*0701 (Homo sapiens, UniProt P01903+P01911, A100R/A102G/A103Q/D57E/D86V/E43K/F76Y/K127E/L162R/M171V/P40G/Q125H/Q99D/R33Q/R42Y/R54Q/S133A/S66F/T210M/V115G/Y107V/Y59L/Y89S); assay: Class II HLA competition binding assay; settings: short assay peptides (Cys7 replaced with Ser); competition with biotinylated allele-specific peptide, soluble HLA DR, overnight, time-resolved fluorescence, triplicate, seven concentrations
Experimental: as §1, §2

HLA DRB1*1501 = target: T2, HLA DRB1*1501 (Homo sapiens, UniProt P01903+P01911); assay: Class II HLA competition binding assay; settings: short assay peptides (Cys7 replaced with Ser); competition with biotinylated allele-specific peptide, soluble HLA DR, overnight, time-resolved fluorescence, triplicate, seven concentrations; unit inferred
T2 construct: incubated overnight to equilibrium with a soluble HLA DR molecule; purchased Benaroya Research Institute, Seattle, Washington
Experimental: as §1, §2

HLA DRB1*0101 = target: T3, HLA DRB1*0101 (Homo sapiens, UniProt P01903+P01911, A100R/D57E/F55L/F60I/F76Y/I96L/L162R/M171V/P40L/Q125E/R42F/V115G/Y59C); assay: Class II HLA competition binding assay; settings: short assay peptides (Cys7 replaced with Ser); competition with biotinylated allele-specific peptide, soluble HLA DR, overnight, time-resolved fluorescence, triplicate, seven concentrations; unit inferred
T3 construct: incubated overnight to equilibrium with a soluble HLA DR molecule; purchased Benaroya Research Institute, Seattle, Washington
Experimental: as §1, §2

HLA DRB1*1301 = target: T4, HLA DRB1*1301 (Homo sapiens, UniProt P01903+P01911, A100E/A169T/K41T/L162R/M171V/P40S/Q125H/Q178H/Q39Y/Q99D/R42S/S66N/T262R/W38E/Y61H); assay: Class II HLA competition binding assay; settings: short assay peptides (Cys7 replaced with Ser), competition with biotinylated allele-specific peptide, soluble HLA DR, overnight, time-resolved fluorescence, triplicate, seven concentrations; for pIC50: unit inferred
T4 construct: incubated overnight to equilibrium with a soluble HLA DR molecule; purchased Benaroya Research Institute, Seattle, Washington
Experimental: as §1, §2

HLA DRB1*1101 = target: T5, HLA DRB1*1101 (Homo sapiens, UniProt P01903+P01911, A100R/A169T/A87E/I96F/K41T/L162R/M171V/P40S/Q125H/Q178H/Q39Y/Q99D/R42S/S66Y/T262R/V115G/W38E); assay: Class II HLA competition binding assay; settings: short assay peptides (Cys7 replaced with Ser), competition with biotinylated allele-specific peptide, soluble HLA DR, overnight, time-resolved fluorescence, triplicate, seven concentrations; for pIC50: unit inferred
T5 construct: incubated overnight to equilibrium with a soluble HLA DR molecule; purchased Benaroya Research Institute, Seattle, Washington
Experimental: as §1, §2

HLA DRB1*0901 = HLA DRB1*0901 (Homo sapiens, UniProt P01903+P01911, A100R/A103E/D57H/D86V/F55Y/F60I/F76Y/I96F/K127E/L162R/M171V/P40D/Q125H/Q99R/R33Q/R42F/S133A/S66N/T210M/V115G/W38K/Y107V/Y59G/Y89S); assay: Class II HLA competition binding assay; settings: short assay peptides (Cys7 replaced with Ser); competition with biotinylated allele-specific peptide, soluble HLA DR, overnight, time-resolved fluorescence, triplicate, seven concentrations
Experimental: as §1, §2

HLA DRB1*0401 = target: T6, HLA DRB1*0401 (Homo sapiens, UniProt P01903+P01911, A100K/A169T/F76Y/I96L/K127E/L162R/M171V/N62H/P40V/Q125Y/R42H/S133A/S149N/S66Y/V115G/V209L/W38E); assay: Class II HLA competition binding assay; settings: short assay peptides (Cys7 replaced with Ser); competition with biotinylated allele-specific peptide, soluble HLA DR, overnight, time-resolved fluorescence, triplicate, seven concentrations
T6 construct: incubated overnight to equilibrium with a soluble HLA DR molecule; purchased Benaroya Research Institute, Seattle, Washington
Experimental: as §1, §2

[1] = of those who develop ADAs; ref LEVY et al., 1988; Grauer et al., 1995; cited from earlier work
Text: In this case study, we describe an exercise to assess the immunogenicity risk of generic peptide impurities that were identified in salmon calcitonin (SCT). SCT is a peptide drug currently under development for the generic market by several manufacturers. Salmon calcitonin is a 32-amino acid peptide drug approved in the United States for the treatment of postmenopausal osteoporosis, Paget’s disease, and hypercalcemia. Salmon calcitonin shares only 50% amino acid sequence homology with human calcitonin (Figure 1), and despite its therapeutic benefits, in clinical trials, 40%–70% of patients tre ...

[2] = greater than human calcitonin; ref Epand et al., 1983; Lee et al., 2011; Andreassen et al., 2014; cited from earlier work
Text: Despite the risk of immunogenicity, SCT is preferred for therapeutic use over human calcitonin due to its 50-fold greater potency in vivo. Increased potency is attributed to the ability of the peptide to adopt an α-helical structure and bind to the human calcitonin receptor with a greater, and nearly irreversible, affinity relative to the human homolog ([Epand et al., 1983]; [Lee et al., 2011]; [Andreassen et al., 2014]).

human donor PBMCs = assay: In vitro immunogenicity protocol (IVIP) naïve T-cell assay, IFNγ FluoroSpot; format: cell-based; settings: individual full-length peptides at 20 μg/mL, 14 days, then 48 h IFNγ FluoroSpot; 16 donors; positive: SFC > 50 per 10^6, SI ≥ 2, p < 0.05 vs medium
Experimental: To improve the sensitivity of the T-cell assays, fresh (not frozen) blood samples were obtained from human blood donors for the T-cell assays (internal observations). Specifically, PBMCs were isolated from leukocyte reduction filters obtained from the Rhode Island Blood Center (RIBC) in Providence, RI. To confirm the sufficient breadth of HLA coverage in the donor cohort, high-resolution (4-digit) class II HLA haplotyping of donors was performed at the Transplant Immunology Laboratory at Hartford Hospital in Hartford, CT, using the sequence-specific oligonucleotide method (SSP-PCR). […] supertype alleles were expressed by the donor PBMCs used in the assays reported here (HLA DRB1*0301, *0401, *0701, *1101, *1301, and *1501). The HLA identified for the cohort of subjects used in this study is representative of 81.81% of the HLA alleles expressed by the global population. Forty percent of the donors were female and 60% of the donors were male, and their ages ranged from 17 to 83 years. Donor cohort demographic information and HLA types for each donor are provided in Supplementary Figure S1. To measure the naïve T-cell response to salmon calcitonin and impurity peptides, cells were plated at a density of 2.5 × 10^5 cells per well in 96-well U-bottom cell plates in RPMI 1640 cell culture medium supplemented with IL-2 (10 ng/mL) and IL-7 (20 ng/mL) (Gibco). The cells were incubated with […]®, or a synthetic salmon calcitonin peptide, or individual peptide impurities, at a concentration of 20 μg/mL for 14 days at 37°C/5% CO2, with medium exchanges that include cytokine support (IL-2 and IL-7) on days 4, 7, and 11. A concentration of 20 μg/mL (5.8 μM) was the dose selected for the SCT API and the four selected impurities, following a dose-ranging study performed with […]® to determine the maximum dose at which a T-cell response could be observed with no observed toxicity to the cells. The dose-ranging study was performed following the same protocol as described above. The following control antigens were used in the T-cell assays for each of the PBMC samples: positive controls, keyhole limpet hemocyanin (KLH; Thermo Fisher), and the antigenic peptide pool CEFT (ImmunoSpot). In addition, human serum albumin (HSA; Sigma-Aldrich) was used as a negative control antigen, and phytohemagglutinin (PHA; Thermo Fisher), a T-cell mitogen, was used to confirm T-cell functionality. […] Responses were considered positive if (1) the number of spots was at least twice the background (stimulation index [SI] ≥ 2); (2) there were greater than 50 spot-forming cells (SFCs) per 1.0 × 10^6 PBMCs; and (3) responses were statistically different from the media (Student's t-test). Each of the test articles (SCT API, RLD, or impurity peptide) and each of the positive and negative controls were evaluated in nine replicate wells containing donor PBMCs. Following the 14-day incubation, cells in the nine replicate wells were collected, pooled by the treatment condition, and re-plated in triplicate on a precoated anti-human IFNγ FluoroSpot plate (Mabtech) at a concentration of 1.0 × 10^5 cells per well in the presence of an appropriate test article or control reagent in supplemented RPMI 1640 culture medium. The FluoroSpot plates were incubated for 48 h at 37°C/5% CO2. After 48 h, FluoroSpot plates were developed according to the manufacturer's directions. Spots were counted on an iSpot Spectrum FluoroSpot reading system (AID, Strassberg, Germany) using software 7.0, build 14790. Fluorophore-specific spot parameters were defined using the spot size, spot intensity, and spot gradient. A spot separation algorithm was applied for optimal spot detection. Analysis and counting of spots were performed by unbiased experts at ZellNet Consulting, Inc. (Fort Lee, NJ).

Compound	pIC50 (HLA DRB1*0301)	pIC50 (HLA DRB1*0701)	pIC50 (HLA DRB1*1501)	pIC50 (HLA DRB1*0101)	pIC50 (HLA DRB1*1301)	pIC50 (HLA DRB1*1101)	pIC50 (HLA DRB1*0901)	pIC50 (HLA DRB1*0401)	IC50, HLA DRB1*0301 (HLA DRB1*0301; unit not given)	IC50, HLA DRB1*0701 (HLA DRB1*0701)	IC50, HLA DRB1*1301 (HLA DRB1*1301; unit not given)	IC50, HLA DRB1*1101 (HLA DRB1*1101; unit not given)	IC50, HLA DRB1*0901 (HLA DRB1*0901)	IC50, HLA DRB1*0401 (HLA DRB1*0401)	patients with ADAs who develop neutralizing anti-SCT antibodies (NADAs) [1]	potency in vivo relative to human calcitonin [2]	Percentage of Responding Donors (human donor PBMCs)	Responding Donors (human donor PBMCs)
CC(C)C[C@H](NC(=O)[C@H](CCC(=O)O)NC(=O)[C@H](CCC(N)=O)NC(=O)[C@@H](N)CO)C(=O)N[C@@H](Cc1c[nH]cn1)C(=O)N[C@@H](CCCCN)C(=O)N[C@@H](CC(C)C)C(=O)N[C@@H](CCC(N)=O)C(=O)N[C@H](C(=O)N[C@@H](Cc1ccc(O)cc1)C(=O)N1CCC[C@H]1C(=O)N[C@@H](CCCNC(=N)N)C(=O)N[C@H](C(=O)N[C@@H](CC(N)=O)C(=O)N[C@H](C(=O)O)[C@@H](C)O)[C@@H](C)O)[C@@H](C)O [API SCT(13-27)] (H-SQELHKLQTYPRTNT-OH)	4.18	< 3.00	5.64	5.48	5.06	3.79	< 3.00	< 3.00										
CC(=O)NCCCC[C@H](NC(=O)CNC(=O)[C@H](CC(C)C)NC(=O)[C@@H](NC(=O)[C@H](CO)NC(=O)[C@@H](NC(=O)[C@@H](N)CO)[C@@H](C)O)C(C)C)C(=O)N[C@@H](CC(C)C)C(=O)N[C@@H](CO)C(=O)N[C@@H](CCC(N)=O)C(=O)N[C@@H](CCC(=O)O)C(=O)N[C@@H](CC(C)C)C(=O)N[C@@H](Cc1c[nH]cn1)C(=O)N[C@@H](CCCCN)C(=O)N[C@@H](CC(C)C)C(=O)O [LYS-AC11_SCT(5-19)] (H-STSVLGK(Ac)LSQELHKL-OH)	< 3.00	< 3.00	4.89	4.91	< 3.00	< 3.00	< 3.00	< 3.00	non-binder	non-binder	non-binder	loss of binding	non-binder	non-binder				
CSNLSTCVLGKLSQELHKLQTYPRTNTGSGTP (disulfide) [SCT API, salmon calcitonin, 32-amino acid peptide drug, disulfide Cys1-Cys7, C-terminus amidated]															more than 60%	50 fold	44%	7
